Source: article PMC2749862, “Glucocorticoids with different chemical structures but similar glucocorticoid receptor potency regulate subsets of common and unique genes in human trabecular meshwork cells” (BMC Medical Genomics, 2009)
Several values for one entry are separate records, joined by “and”; a condition that tells them apart may be missing. Identical values can stand only once.

Columns and labels:
[1] = target: T1, glucocorticoid receptor (Homo sapiens, UniProt P04150); experiment: GR radiolabeled competitive binding assay (IM-9 cell cytosol, [3H]dexamethasone; Cerep); conditions: for nH (Hill coefficient): IM-9 cell cytosol competition curves; for Ki: IM-9 cell cytosol, calculated by Cheng Prusoff equation; for IC50: read-out: GR binding affinity IC50
T1 sequence (P04150 524-777 limits assumed): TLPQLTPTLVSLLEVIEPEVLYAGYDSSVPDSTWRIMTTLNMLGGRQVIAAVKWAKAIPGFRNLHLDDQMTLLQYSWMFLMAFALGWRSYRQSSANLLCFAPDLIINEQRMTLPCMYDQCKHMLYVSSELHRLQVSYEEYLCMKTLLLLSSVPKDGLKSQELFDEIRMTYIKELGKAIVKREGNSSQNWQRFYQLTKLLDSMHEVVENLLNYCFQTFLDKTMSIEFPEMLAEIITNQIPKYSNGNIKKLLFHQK
Protocol: GR binding affinity assay was performed at Cerep Inc. (Celle l'Evescault, France), according to an established method. […] Nonspecific binding is determined in the presence of 10 μM triamcinolone. Following incubation, the samples are filtered rapidly under vacuum through glass fiber filters (GF/B, Packard) presoaked with 0.3% Poly(ethyleneimine) and rinsed several times with ice-cold 50 mM Tris-HCl using a 96-sample cell harvester (Unifilter, Packard). The filters are dried and counted for radioactivity in a scintillation counter (Topcount, Packard) using a scintillation cocktail (Microscint 0, Packard). The results are expressed as percent inhibition of the control radioligand specific binding. The IC50 values (concentration causing half-maximal inhibition of control specific binding) and Hill coefficients (nH) were determined by non-linear regression analysis of the competition curves generated with mean replicate values using Hill equation curve fitting (Y = D + [(A - D)/(1 + (C/C50)^nH)], where Y = specific binding, D = minimum specific binding, A = maximum specific binding, C = compound concentration, C50 = IC50, and nH = slope factor). […] The inhibition constants (Ki) were calculated using the Cheng Prusoff equation (Ki = IC50/(1+(L/KD)), where L = concentration of radioligand in the assay, and KD = affinity of the radioligand for the receptor). […] The GR binding assay was performed in duplicate.

[2] = test system: TM 86 cells; experiment: Microarray gene expression profiling in TM 86 cells (with IPA and GoMiner analysis); type: cell-based, human; conditions: 1 μM, 24 hr
From the text: (§1) Cells were maintained in low glucose Dulbecco's Modified Eagle Medium (DMEM, Invitrogen, Carlsbad, CA) supplemented with 10% (vol/vol) FBS (American Type Culture Collection, Manassas, VA), 1% (vol/vol) penicillin and streptomycin (Invitrogen). Cells from the human HeLa cervical adenocarcinoma cell line (American Type Culture Collection) were maintained in α-MEM medium supplemented with 10% (v/v) FBS, 1% (v/v) penicillin and streptomycin. All cells were used within passages 3 to 6. […] Cells were maintained for one week with medium renewal every other day. The day before the experiment, confluent TM were washed once with phosphate-buffered saline (PBS) and then the cells were maintained in 1% FBS-containing medium with antibiotics. […] Control cells were treated with 0.1%(v/v) dimethylsulfoxide (DMSO). At the end of GC treatment, supernatant was discarded and the cell monolayer was kept frozen at -80°C for subsequent total RNA extraction and gene expression profiling. […] Briefly, RNA was isolated from flash frozen cell culture plates using RNeasy Mini columns (Qiagen, Valencia, CA) according to the manufacturer's protocol. There were three biological replicates per treatment condition. The quantity and purity of the extracted RNA was evaluated using a NanoDrop ND-1000 spectrophotometer (Nanodrop Technologies, Wilmington, DE, USA) and its integrity measured using an Agilent Bioanalyzer. […] The amount and quality of the fluorescently labeled cRNA was assessed using a NanoDrop ND-1000 spectrophotometer and an Agilent Bioanalyzer. An equal amount of Cy3-labeled cRNA (1.6 μg) was hybridized to the Agilent Human Whole Genome Oligo Microarray (Agilent Technologies) for 17 hours, prior to washing and scanning. Data were extracted from scanned images using Agilent's Feature Extraction Software (Agilent Technologies) using default settings. […] The full complement of microarray data has been deposited in the NIH/NLM Gene Expression Omnibus (GEO accession # GSE16643). […] The lists of differentially expressed genes were also applied to global functional, network and canonical pathway analyses using Ingenuity Pathway Analysis (Ingenuity® Systems, Redwood City, CA).

[3] = test system: TM 93 cells; experiment: Microarray gene expression profiling in TM 93 cells (with IPA and GoMiner analysis); type: cell-based, human; conditions: 1 μM, 24 hr
From the text: as §1

[4] = human, following local administration; cited from earlier work
[5] = target: T1, glucocorticoid receptor; experiment: GeneBLAzer beta-lactamase reporter gene assay, GR transactivation in MMTV-bla HeLa CellSensor cells; type: cell-based; conditions: 5 hr treatment
Protocol: GR transactivation activity was assessed by the Invitrogen SelectScreen Profiling Service (Madison, WI), using Invitrogen GeneBLAzer beta-lactamase reporter gene technology. Profiling was performed using human HeLa cells stably transfected with an expression construct containing β-lactamase cDNA under the control of the MMTV response element previously identified as a GR response element (MMTV-bla HeLa CellSensor®). The MMTV-bla HeLa cells were plated in 384-well plates in 32 μl assay medium (OPTIMEM + 1% charcoal/dextran stripped FBS) at a density of 10,000 cells/well and incubated overnight. […] The β-lactamase activity of each sample was determined by adding 8 μl of 6-fold concentrated LiveBLAzer™ substrate solution to the samples followed by two hours of incubation at room temperature in a Tecan Safire2 plate reader using the appropriate LiveBLAzer™ filter settings. GC treatment was performed in 15-point dose response using a three-fold dilution series starting with a maximum compound concentration of 10 μM. Each data point represents a triplicate sample (n = 3). Assay reproducibility was determined by calculating Z' values for untreated vs. maximum stimulation. The GeneBLAzer assay was performed twice.

SMILES: C[C@@H]1C[C@H]2[C@@H]3CCC4=CC(=O)C=C[C@]4(C)[C@@]3(F)[C@@H](O)C[C@]2(C)[C@@]1(O)C(=O)CO [DEX, dexamethasone]
- nH (Hill coefficient) [1]: 1.06 ± 0.18
- function of significantly regulated transcripts (Ingenuity Pathway Analysis) [2]: RNA post-transcriptional modifications
- number of genes uniquely regulated by each GC [2]: 1761
- significantly regulated biological process (GoMiner gene ontology) [2]: cellular component organization and biogenesis
- significantly regulated network (Ingenuity Pathway Analysis) [2]: a network centered around the RNA binding protein S1 or RNPS1
- function of significantly regulated genes (Ingenuity Pathway Analysis) [3]: histone methylation
- number of genes uniquely regulated by each GC [3]: 745
- significantly regulated biological process (GoMiner gene ontology) [3]: membrane lipid metabolic process
- significantly regulated network (Ingenuity Pathway Analysis) [3]: a network centered around a histone methyltransferase known as suppressor of zeste 12 homolog or SUZ12

SMILES: CC1(C)O[C@@H]2C[C@H]3[C@@H]4CCC5=CC(=O)C=C[C@]5(C)[C@@]4(F)[C@@H](O)C[C@]3(C)[C@]2(C(=O)CO)O1 [TA, triamcinolone acetonide]
- nH (Hill coefficient) [1]: 1.05 ± 0.07
- Ki [1]: 720 ± 240 pM
- IC50 [1]: 1450 ± 500 pM
- ocular tissue concentrations [4]: > 1 µM
- function of significantly regulated transcripts (Ingenuity Pathway Analysis) [2]: cell morphology
- number of genes uniquely regulated by each GC [2]: 388
- significantly regulated biological process (GoMiner gene ontology) [2]: mitotic cell cycle
- ANGPTL4 FC (fold change) ([2]; microarray): 7.9 fold
- ANGPTL7 FC (fold change) ([2]; microarray): 26.5 fold
- AQP1 FC (fold change) ([2]; microarray): -5.1 fold
- CCRL1 FC (fold change) ([2]; microarray): -3.4 fold
- CXADR FC (fold change) ([2]; microarray): -4.8 fold
- ENST00000344214 FC (fold change) ([2]; microarray): -3.1 fold
- FKBP5 FC (fold change) ([2]; microarray): 12.5 fold
- GABRB1 FC (fold change) ([2]; microarray): -4.9 fold
- ITGA10 FC (fold change) ([2]; microarray): 17.7 fold
- KAL1 FC (fold change) ([2]; microarray): -6.7 fold
- KCNB1 FC (fold change) ([2]; microarray): 19.9 fold
- KIF4A FC (fold change) ([2]; microarray): -4.1 fold
- KLF15 FC (fold change) ([2]; microarray): 11.1 fold
- LSP1 FC (fold change) ([2]; microarray): 15.4 fold
- MXRA5 FC (fold change) ([2]; microarray): -5.4 fold
- MYOC FC (fold change) ([2]; microarray): 6.7 fold
- PCDH19 FC (fold change) ([2]; microarray): -5.0 fold
- PER3 FC (fold change) ([2]; microarray): -7.0 fold
- RASL11B FC (fold change) ([2]; microarray): -4.0 fold
- RGC32 FC (fold change) ([2]; microarray): >100 fold
- SAA1 FC (fold change) ([2]; microarray): 35.3 fold
- ZBTB16 FC (fold change) ([2]; microarray): 8.1 fold
- function of significantly regulated genes (Ingenuity Pathway Analysis) [3]: cell adhesion
- number of genes uniquely regulated by each GC [3]: 555
- significantly regulated biological process (GoMiner gene ontology) [3]: smooth muscle cell proliferation
- ANGPTL4 FC (fold change) ([3]; microarray): 5.3 fold
- ANGPTL7 FC (fold change) ([3]; microarray): 20.5 fold
- AQP1 FC (fold change) ([3]; microarray): -2.8 fold
- CCRL1 FC (fold change) ([3]; microarray): -2.1 fold
- CXADR FC (fold change) ([3]; microarray): -2.6 fold
- FKBP5 FC (fold change) ([3]; microarray): 5.8 fold
- GABRB1 FC (fold change) ([3]; microarray): -2.6 fold
- ITGA10 FC (fold change) ([3]; microarray): 5.6 fold
- KAL1 FC (fold change) ([3]; microarray): -3.3 fold
- KCNB1 FC (fold change) ([3]; microarray): 11.3 fold
- KIF4A FC (fold change) ([3]; microarray): -2.3 fold
- KLF15 FC (fold change) ([3]; microarray): 3.9 fold
- MXRA5 FC (fold change) ([3]; microarray): -4.5 fold
- MYOC FC (fold change) ([3]; microarray): 2.6 fold
- OCA2 FC (fold change) ([3]; microarray): >100 fold
- PCDH19 FC (fold change) ([3]; microarray): -3.3 fold
- PER3 FC (fold change) ([3]; microarray): -3.8 fold
- PF4 FC (fold change) ([3]; microarray): 4.4 fold
- RGC32 FC (fold change) ([3]; microarray): 19.9 fold
- SAA1 FC (fold change) ([3]; microarray): 11.9 fold
- ZBTB16 FC (fold change) ([3]; microarray): 5.5 fold
- EC50 [5]: 1290 ± 280 pM

SMILES: CC1(C)O[C@@H]2C[C@H]3[C@@H]4C[C@H](F)C5=CC(=O)C=C[C@]5(C)[C@@]4(F)[C@@H](O)C[C@]3(C)[C@]2(C(=O)CO)O1 [FA, fluocinolone acetonide]
- nH (Hill coefficient) [1]: 1.10 ± 0.00
- Ki [1]: 970 ± 170 pM
- IC50 [1]: 2000 ± 420 pM
- function of significantly regulated transcripts (Ingenuity Pathway Analysis) [2]: lipid metabolism
- number of genes uniquely regulated by each GC [2]: 693
- significantly regulated biological process (GoMiner gene ontology) [2]: actin filament-based process
- significantly regulated network (Ingenuity Pathway Analysis) [2]: a GR-dependent network
- ANGPTL4 FC (fold change) ([2]; microarray): 9.6 fold
- ANGPTL7 FC (fold change) ([2]; microarray): 16.0 fold
- AQP1 FC (fold change) ([2]; microarray): -4.4 fold
- CCRL1 FC (fold change) ([2]; microarray): -4.7 fold
- CXADR FC (fold change) ([2]; microarray): -3.4 fold
- FKBP5 FC (fold change) ([2]; microarray): 13.8 fold
- GABRB1 FC (fold change) ([2]; microarray): -4.0 fold
- ITGA10 FC (fold change) ([2]; microarray): 25.1 fold
- KAL1 FC (fold change) ([2]; microarray): -5.6 fold
- KCNB1 FC (fold change) ([2]; microarray): 20.1 fold
- KIF4A FC (fold change) ([2]; microarray): -3.6 fold
- KLF15 FC (fold change) ([2]; microarray): 11.5 fold
- LSP1 FC (fold change) ([2]; microarray): 14.9 fold
- MXRA5 FC (fold change) ([2]; microarray): -4.3 fold
- MYOC FC (fold change) ([2]; microarray): 7.4 fold
- PCDH19 FC (fold change) ([2]; microarray): -5.1 fold
- PER3 FC (fold change) ([2]; microarray): -5.3 fold
- PF4 FC (fold change) ([2]; microarray): 3.1 fold and 3.2 fold
- RASL11B FC (fold change) ([2]; microarray): -4.9 fold
- RGC32 FC (fold change) ([2]; microarray): >100 fold
- SAA1 FC (fold change) ([2]; microarray): 34.6 fold
- ZBTB16 FC (fold change) ([2]; microarray): 8.7 fold
- function of significantly regulated genes (Ingenuity Pathway Analysis) [3]: cell cycle
- number of genes uniquely regulated by each GC [3]: 2294
- significantly regulated biological process (GoMiner gene ontology) [3]: biopolymer metabolic process
- significantly regulated network (Ingenuity Pathway Analysis) [3]: JARID1B-based network
- ANGPTL4 FC (fold change) ([3]; microarray): 9.1 fold
- ANGPTL7 FC (fold change) ([3]; microarray): 13.0 fold
- AQP1 FC (fold change) ([3]; microarray): -3.2 fold
- CCRL1 FC (fold change) ([3]; microarray): -2.5 fold
- CXADR FC (fold change) ([3]; microarray): -1.8 fold
- ENST00000344214 FC (fold change) ([3]; microarray): -6.3 fold
- FKBP5 FC (fold change) ([3]; microarray): 6.8 fold
- GABRB1 FC (fold change) ([3]; microarray): -2.2 fold
- ITGA10 FC (fold change) ([3]; microarray): 9.1 fold
- KAL1 FC (fold change) ([3]; microarray): -3.0 fold
- KCNB1 FC (fold change) ([3]; microarray): 5.2 fold
- KIF4A FC (fold change) ([3]; microarray): -2.2 fold
- KLF15 FC (fold change) ([3]; microarray): 3.6 fold
- LSP1 FC (fold change) ([3]; microarray): 18.0 fold
- MXRA5 FC (fold change) ([3]; microarray): -4.5 fold
- MYOC FC (fold change) ([3]; microarray): 2.7 fold
- OCA2 FC (fold change) ([3]; microarray): 98.0 fold
- PCDH19 FC (fold change) ([3]; microarray): -3.9 fold
- PER3 FC (fold change) ([3]; microarray): -3.6 fold
- PF4 FC (fold change) ([3]; microarray): 6.5 fold
- RGC32 FC (fold change) ([3]; microarray): 11.0 fold
- SAA1 FC (fold change) ([3]; microarray): 8.3 fold
- ZBTB16 FC (fold change) ([3]; microarray): 4.9 fold
- EC50 [5]: 700 pM and 670 pM
